From patent US8658350B2 (priority 2008, dated 2014)

Tested on: CD8+ T cells
Type: cell-based, human

Compound	# SFU	#SFU/250,000 CD8+ T-cells
CC(C)[C@H](NC(=O)[C@H](Cc1ccccc1)NC(=O)[C@H](CCCNC(=N)N)NC(=O)[C@H](C)NC(=O)[C@H](Cc1c[nH]cn1)NC(=O)[C@H](C)NC(=O)[C@H](C)N)C(=O)N[C@@H](C)C(=O)N[C@@H](C)C(=O)O	88	–
CSCC[C@H](NC(=O)[C@H](CCC(=O)O)NC(=O)[C@H](C)N)C(=O)N[C@@H](CCCCN)C(=O)N[C@H](C(=O)N[C@@H](CC(=O)O)C(=O)N[C@@H](C)C(=O)N[C@@H](C)C(=O)O)[C@@H](C)O	2458	–
CSCC[C@H](NC(=O)[C@H](CCC(=O)O)NC(=O)[C@H](C)N)C(=O)N[C@@H](CCCCN)C(=O)N[C@H](C(=O)N[C@@H](CC(=O)O)C(=O)N[C@@H](C)C(=O)N[C@@H](C)C(=O)N[C@H](C(=O)N[C@@H](CC(C)C)C(=O)N[C@@H](C)C(=O)O)[C@@H](C)O)[C@@H](C)O	1993	–
CC(C)C[C@H](NC(=O)[C@H](Cc1ccc(O)cc1)NC(=O)[C@H](CO)NC(=O)[C@H](CCC(N)=O)NC(=O)[C@H](C)NC(=O)[C@@H](NC(=O)[C@@H]1CCCN1C(=O)[C@H](CO)NC(=O)[C@H](C)N)C(C)C)C(=O)O	210	–
CC[C@H](C)[C@H](NC(=O)[C@@H](NC(=O)[C@H](C)N)C(C)C)C(=O)N[C@@H](CC(N)=O)C(=O)N[C@H](C(=O)N[C@H](C(=O)N[C@@H](CS)C(=O)N[C@@H](CC(N)=O)C(=O)N[C@@H](Cc1ccc(O)cc1)C(=O)NCC(=O)N[C@@H](CCC(N)=O)C(=O)O)[C@@H](C)O)[C@@H](C)O	24	–
CSCC[C@H](NC(=O)[C@@H](N)CCC(=O)O)C(=O)N[C@@H](CCCCN)C(=O)N[C@H](C(=O)N[C@@H](CC(=O)O)C(=O)N[C@@H](C)C(=O)N[C@@H](C)C(=O)N[C@H](C(=O)N[C@@H](CC(C)C)C(=O)O)[C@@H](C)O)[C@@H](C)O	387	–
CC[C@H](C)[C@H](NC(=O)[C@H](Cc1c[nH]cn1)NC(=O)[C@H](C)NC(=O)[C@H](CC(=O)O)NC(=O)[C@H](CC(C)C)NC(=O)[C@@H](N)CC(C)C)C(=O)N1CCC[C@H]1C(=O)N[C@@H](CCC(N)=O)C(=O)N[C@@H](CC(C)C)C(=O)O	<10	–
CC[C@H](C)[C@H](NC(=O)[C@@H](N)CC(N)=O)C(=O)N[C@@H](CCCNC(=N)N)C(=O)N[C@@H](CCC(N)=O)C(=O)N[C@@H](C)C(=O)NCC(=O)N[C@H](C(=O)N[C@@H](CCC(N)=O)C(=O)N[C@@H](Cc1ccc(O)cc1)C(=O)O)C(C)C	1715	–
CC(C)[C@H](NC(=O)[C@H](C)NC(=O)[C@H](C)NC(=O)[C@H](CCC(N)=O)NC(=O)[C@H](C)NC(=O)[C@H](C)NC(=O)[C@@H](N)[C@@H](C)O)C(=O)N[C@H](C(=O)N[C@@H](CCCNC(=N)N)C(=O)N[C@@H](Cc1ccccc1)C(=O)O)C(C)C	258	–
ELPQWLSANR	<10	–
QTVEDEARRMW	–	84
RADEEQQQAL	120	–
